# Data: PMC4201332 (ACS Chemical Biology, 2014)
# Columns and labels:
# hmGlu1 = hmGlu1 (Homo sapiens, UniProt Q13255); assay: Calcium mobilization mGlu1 PAM potency assay; type: cell-based; conditions: for Emax: T-REx-293, read-out: hmGlu1 % Glu Max (±SEM)
# mGlu1 P1015A mutant = mGlu1 P1015A mutant (Homo sapiens, UniProt Q13255, P1015A); assay: Calcium mobilization in stable Sz mutant cell line; type: cell-based; conditions: agonist DHPG
# mGlu1 Sz mutants = assay: Calcium mobilization in stable cell lines expressing schizophrenia; type: cell-based, human
# mGlu1 WT receptor [1] = target: T1, mGlu1 WT receptor (Homo sapiens, UniProt Q13255); type: cell-based
# T1 sequence (Q13255 19-1194): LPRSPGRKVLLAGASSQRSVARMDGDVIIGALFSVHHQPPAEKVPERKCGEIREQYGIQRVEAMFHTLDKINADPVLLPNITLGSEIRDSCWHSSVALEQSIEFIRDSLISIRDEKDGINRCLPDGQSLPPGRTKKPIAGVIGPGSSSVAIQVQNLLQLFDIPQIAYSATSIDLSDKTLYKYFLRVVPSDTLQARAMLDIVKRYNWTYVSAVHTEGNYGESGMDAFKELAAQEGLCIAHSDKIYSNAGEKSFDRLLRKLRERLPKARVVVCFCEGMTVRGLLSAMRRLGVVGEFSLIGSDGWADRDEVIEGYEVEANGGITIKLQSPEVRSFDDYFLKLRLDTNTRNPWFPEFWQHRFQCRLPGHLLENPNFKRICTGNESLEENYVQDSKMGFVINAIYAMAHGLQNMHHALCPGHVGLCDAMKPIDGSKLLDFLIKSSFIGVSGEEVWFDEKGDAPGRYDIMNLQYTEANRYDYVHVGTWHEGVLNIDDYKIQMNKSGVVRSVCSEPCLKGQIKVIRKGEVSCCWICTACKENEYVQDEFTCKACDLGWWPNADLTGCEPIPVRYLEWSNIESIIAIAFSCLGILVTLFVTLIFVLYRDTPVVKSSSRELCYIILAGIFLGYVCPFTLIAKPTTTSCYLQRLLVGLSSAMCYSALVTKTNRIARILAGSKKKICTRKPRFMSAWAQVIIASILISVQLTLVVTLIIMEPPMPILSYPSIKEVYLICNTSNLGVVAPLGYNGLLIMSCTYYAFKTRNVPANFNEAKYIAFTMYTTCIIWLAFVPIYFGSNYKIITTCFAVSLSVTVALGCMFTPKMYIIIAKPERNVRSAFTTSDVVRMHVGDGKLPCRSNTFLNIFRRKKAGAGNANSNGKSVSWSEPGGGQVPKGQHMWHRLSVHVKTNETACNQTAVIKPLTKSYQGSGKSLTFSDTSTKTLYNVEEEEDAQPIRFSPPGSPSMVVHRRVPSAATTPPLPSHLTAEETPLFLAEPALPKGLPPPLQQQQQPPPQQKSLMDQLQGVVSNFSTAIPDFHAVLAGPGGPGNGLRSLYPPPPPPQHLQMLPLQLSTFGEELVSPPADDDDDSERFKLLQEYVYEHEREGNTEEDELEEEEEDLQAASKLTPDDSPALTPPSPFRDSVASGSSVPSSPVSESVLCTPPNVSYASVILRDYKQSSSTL
# mGlu1 K563N mutant = mGlu1 K563N mutant (Homo sapiens, UniProt Q13255, K563N); assay: Calcium mobilization in stable Sz mutant cell line; type: cell-based; conditions: agonist DHPG
# mGlu1 K563N mutant, sequence (Q13255 19-1194 K563N): as the sequence (Q13255 19-1194) above, with K545N counted along it
# mGlu1 WT receptor [2] = target: T1, mGlu1 WT receptor; type: cell-based; conditions: 10 μM PAM
# hmGlu4 = hmGlu4 (Homo sapiens, UniProt Q14833); assay: Calcium mobilization mGlu4 assay; type: cell-based
# hmGlu4, sequence (Q14833 33-912): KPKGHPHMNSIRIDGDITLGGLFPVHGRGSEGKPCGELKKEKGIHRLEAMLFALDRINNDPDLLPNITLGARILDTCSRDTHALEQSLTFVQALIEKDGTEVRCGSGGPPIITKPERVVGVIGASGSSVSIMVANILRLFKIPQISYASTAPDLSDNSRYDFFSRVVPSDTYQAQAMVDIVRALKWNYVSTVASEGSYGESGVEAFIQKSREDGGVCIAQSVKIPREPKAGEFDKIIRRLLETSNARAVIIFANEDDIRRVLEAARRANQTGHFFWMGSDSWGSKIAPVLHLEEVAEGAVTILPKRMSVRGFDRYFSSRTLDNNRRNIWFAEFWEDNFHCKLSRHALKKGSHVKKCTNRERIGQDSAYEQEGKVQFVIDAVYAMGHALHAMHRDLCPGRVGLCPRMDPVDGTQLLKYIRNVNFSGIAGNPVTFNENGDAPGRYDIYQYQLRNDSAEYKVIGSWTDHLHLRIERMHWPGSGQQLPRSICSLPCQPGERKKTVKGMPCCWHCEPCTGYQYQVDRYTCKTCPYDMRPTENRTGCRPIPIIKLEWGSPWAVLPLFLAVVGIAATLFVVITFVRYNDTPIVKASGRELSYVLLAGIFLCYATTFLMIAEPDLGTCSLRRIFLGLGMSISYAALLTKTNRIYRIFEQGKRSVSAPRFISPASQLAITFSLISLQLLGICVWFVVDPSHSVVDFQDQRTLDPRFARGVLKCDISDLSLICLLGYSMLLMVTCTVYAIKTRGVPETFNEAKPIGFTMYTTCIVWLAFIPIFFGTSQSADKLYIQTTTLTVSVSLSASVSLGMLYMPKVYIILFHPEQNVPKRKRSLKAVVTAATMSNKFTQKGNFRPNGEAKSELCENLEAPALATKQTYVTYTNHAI
# [3] = tested on: amphetamine-induced hyperlocomotion in WT rats; assay: Amphetamine-induced hyperlocomotion; type: in vivo, rat; conditions: doses up to 100 mg/kg i.p.
# CYP2C9 = CYP2C9 (Homo sapiens, UniProt P11712); assay: Cytochrome P450 inhibition; type: in vitro ADME
# CYP2C9, sequence (P11712 whole entry): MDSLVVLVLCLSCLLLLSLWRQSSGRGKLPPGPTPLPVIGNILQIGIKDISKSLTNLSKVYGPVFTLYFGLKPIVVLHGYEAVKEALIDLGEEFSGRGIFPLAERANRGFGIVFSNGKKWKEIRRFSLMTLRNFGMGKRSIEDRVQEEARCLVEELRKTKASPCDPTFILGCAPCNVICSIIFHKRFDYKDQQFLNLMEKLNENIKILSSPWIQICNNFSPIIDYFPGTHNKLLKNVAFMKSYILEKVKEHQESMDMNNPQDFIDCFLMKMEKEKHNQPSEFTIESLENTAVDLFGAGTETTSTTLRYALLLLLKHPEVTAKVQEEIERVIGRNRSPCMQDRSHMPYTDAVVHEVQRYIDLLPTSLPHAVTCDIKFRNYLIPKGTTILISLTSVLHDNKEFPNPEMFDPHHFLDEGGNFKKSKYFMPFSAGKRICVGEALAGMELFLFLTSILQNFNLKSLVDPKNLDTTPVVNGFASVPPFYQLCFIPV
# CYP3A4 = CYP3A4 (Homo sapiens, UniProt P08684); assay: Cytochrome P450 inhibition; type: in vitro ADME
# CYP3A4, sequence (P08684 whole entry): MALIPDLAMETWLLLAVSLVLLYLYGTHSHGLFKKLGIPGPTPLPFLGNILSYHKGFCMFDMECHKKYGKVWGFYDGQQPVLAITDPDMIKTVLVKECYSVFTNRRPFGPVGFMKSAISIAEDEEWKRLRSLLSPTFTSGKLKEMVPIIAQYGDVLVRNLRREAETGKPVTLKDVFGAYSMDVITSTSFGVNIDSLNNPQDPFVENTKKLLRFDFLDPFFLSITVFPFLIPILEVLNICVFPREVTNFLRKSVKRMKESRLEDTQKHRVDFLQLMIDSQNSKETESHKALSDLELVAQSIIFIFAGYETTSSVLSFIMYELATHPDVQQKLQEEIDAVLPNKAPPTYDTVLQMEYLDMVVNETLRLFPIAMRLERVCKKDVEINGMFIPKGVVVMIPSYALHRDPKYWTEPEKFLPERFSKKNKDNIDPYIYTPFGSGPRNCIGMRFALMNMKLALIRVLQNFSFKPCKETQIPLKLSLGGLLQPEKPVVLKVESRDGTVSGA
# CYP2D6 = CYP2D6 (Homo sapiens, UniProt P10635); assay: Cytochrome P450 inhibition; type: in vitro ADME
# CYP2D6, sequence (P10635 whole entry): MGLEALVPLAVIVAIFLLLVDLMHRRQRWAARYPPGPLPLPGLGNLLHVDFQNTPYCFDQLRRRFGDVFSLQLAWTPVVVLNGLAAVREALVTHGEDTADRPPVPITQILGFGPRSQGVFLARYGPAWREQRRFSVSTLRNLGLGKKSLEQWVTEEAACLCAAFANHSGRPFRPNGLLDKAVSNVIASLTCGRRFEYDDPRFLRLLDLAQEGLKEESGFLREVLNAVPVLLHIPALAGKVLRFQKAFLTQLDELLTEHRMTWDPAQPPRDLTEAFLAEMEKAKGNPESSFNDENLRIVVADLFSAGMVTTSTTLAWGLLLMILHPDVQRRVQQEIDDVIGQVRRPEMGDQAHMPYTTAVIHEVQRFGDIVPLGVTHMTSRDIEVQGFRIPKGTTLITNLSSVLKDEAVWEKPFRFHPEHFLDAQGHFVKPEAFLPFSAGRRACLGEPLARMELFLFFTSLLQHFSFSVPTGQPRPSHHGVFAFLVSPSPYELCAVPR
# CYP1A2 = target: T2, CYP1A2 (Homo sapiens, UniProt P05177); assay: Cytochrome P450 inhibition; type: in vitro ADME
# T2 sequence (P05177 1-516): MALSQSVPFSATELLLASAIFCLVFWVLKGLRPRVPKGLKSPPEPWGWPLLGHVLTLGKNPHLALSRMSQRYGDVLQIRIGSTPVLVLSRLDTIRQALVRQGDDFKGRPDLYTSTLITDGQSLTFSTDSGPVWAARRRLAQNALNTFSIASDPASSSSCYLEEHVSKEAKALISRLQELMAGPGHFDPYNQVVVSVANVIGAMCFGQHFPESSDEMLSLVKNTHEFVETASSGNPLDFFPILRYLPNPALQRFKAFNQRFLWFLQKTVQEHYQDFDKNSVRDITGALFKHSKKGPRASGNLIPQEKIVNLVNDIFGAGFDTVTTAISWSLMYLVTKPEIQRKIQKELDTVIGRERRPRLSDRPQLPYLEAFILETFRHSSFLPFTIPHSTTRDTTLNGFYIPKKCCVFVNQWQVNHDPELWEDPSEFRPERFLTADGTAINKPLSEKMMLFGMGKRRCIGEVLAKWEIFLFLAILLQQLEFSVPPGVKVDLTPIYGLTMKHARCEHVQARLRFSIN
# [4] = hmGlu1 EC50, calcium mobilization, average of n = 3 performed in triplicate
# hmGlu1, sequence (Q13255 19-1194): as the sequence (Q13255 19-1194) above
# mGlu1 P1015A mutant, sequence (Q13255 19-1194 P1015A): as the sequence (Q13255 19-1194) above, with P997A counted along it
structure (smiles),measurement,setting,value
Cc1cccnc1C(=O)Nc1ccc(N2C(=O)c3cccc(C)c3C2=O)c(Cl)c1 [23a],Emax,hmGlu1,101 ± 7%
same,EC50,hmGlu1; [4],176 nM
"N[C@H](C(=O)O)c1cc(O)cc(O)c1 [DHPG, (S)-3,5-dihydroxyphenylglycine]","calcium response, % of WT response",mGlu1 P1015A mutant,~90%
same,"calcium response, % of WT response","mGlu1 Sz mutants; agonist DHPG, majority of mutants, typically",55–75%
same,EC50,mGlu1 WT receptor [1],2500 nM
same,"calcium response, % of WT",mGlu1 K563N mutant,~110%
Cc1cccnc1C(=O)Nc1ccc(N2C(=O)c3cccc(Cl)c3C2=O)c(Cl)c1 [23c],left-ward fold shift of the glutamate concentration response curve,mGlu1 WT receptor [2],~3 fold
same,leftward fold shift of the DHPG concentration-response curve,"mGlu1 WT receptor [1]; 10 μM PAM, WT mGlu1",3.4 fold
same,EC50,hmGlu4,199 nM
same,hmGlu4 % Glu Max,hmGlu4; calcium mobilization,55%
same,hmGlu1 % Glu Max (±SEM),hmGlu1; calcium mobilization,126 ± 25%
same,EC50,hmGlu1; [4],372 nM
same,EC50,"hmGlu1; hmGlu1 EC50, text and Figure 6",370 nM
same,effect on amphetamine-induced hyperlocomotion,[3],behaved similarly
O=C(Nc1ccc(N2C(=O)c3cccc(F)c3C2=O)c(Cl)c1)c1ncccc1Cl [24e],Emax,hmGlu1,117 ± 9%
same,EC50,hmGlu1; [4],1140 nM
"O=C(Nc1ccc(N2C(=O)c3cccc(Cl)c3C2=O)c(Cl)c1)c1ncccc1Cl [24c, N-(3-chloro-4-(4-chloro-1,3-dioxoisoindolin-2-yl)phenyl)-3-chloropicolinamide]",IC50,CYP2C9,> 30000 nM
same,IC50,CYP3A4,> 30000 nM
same,IC50,CYP2D6,> 30000 nM
same,hmGlu1 % Glu Max (±SEM),hmGlu1; calcium mobilization,110 ± 15%
same,EC50,hmGlu1; [4],391 nM
same,EC50,"hmGlu1; hmGlu1 pEC50 (±SEM), calcium mobilization",389 nM
same,IC50,CYP1A2,> 30000 nM
same,effect on amphetamine-induced hyperlocomotion,[3],no effect up to the highest dose
Cc1cccnc1C(=O)Nc1ccc(N2C(=O)c3cccc(F)c3C2=O)c(Cl)c1 [23e],Emax,hmGlu1,90 ± 15%
same,EC50,hmGlu1; [4],418 nM
Cc1ccc2c(c1)C(=O)N(c1ccc(NC(=O)c3ncccc3C)cc1Cl)C2=O [23b],Emax,hmGlu1,130 ± 26%
same,EC50,hmGlu1; [4],> 10000 nM
Cc1ccc2c(c1)C(=O)N(c1ccc(NC(=O)c3ncccc3Cl)cc1Cl)C2=O [24b],Emax,hmGlu1,82 ± 4%
same,EC50,hmGlu1; [4],832 nM
Cc1cccc2c1C(=O)N(c1ccc(NC(=O)c3ncccc3Cl)cc1Cl)C2=O [24a],Emax,hmGlu1,110 ± 21%
same,EC50,hmGlu1; [4],177 nM
Cc1cccnc1C(=O)Nc1ccc(N2C(=O)c3ccc(F)cc3C2=O)c(Cl)c1 [23f],EC50,hmGlu1; [4],> 10000 nM
"N[C@@H](CCC(=O)O)C(=O)O [glutamate, L-glutamic acid]","calcium response, % of the WT response","mGlu1 Sz mutants; agonist glutamate, mutants typically, except K563N and P1015A",45–65%
